Data published in ChEMBL document CHEMBL5143523, “Construction and activity evaluation of novel benzodioxane derivatives as dual-target antifungal inhibitors” (Eur J Med Chem, 2022).
Activity calls are given as the source filed them. The calls are words filed in the database; no cut-off is given here.

How the values were obtained:
Candida albicans [1] = experiment: Antifungal activity against fluconazole resistant Candida albicans strain 901 assessed as fungal growth inhibition measured after 72 hrs in presence of naftifine by CLSI protocol based liquid medium dilution method; format: functional
Candida albicans [2] = experiment: Antifungal activity against fluconazole resistant Candida albicans strain 904 assessed as fungal growth inhibition measured after 72 hrs in presence of naftifine by CLSI protocol based liquid medium dilution method; format: functional
Candida albicans [3] = experiment: Antifungal activity against fluconazole resistant Candida albicans strain 103 assessed as fungal growth inhibition measured after 72 hrs in presence of naftifine by CLSI protocol based liquid medium dilution method; format: functional
Candida albicans [4] = experiment: Antifungal activity against fluconazole resistant Candida albicans strain 17# assessed as fungal growth inhibition measured after 72 hrs in presence of naftifine by CLSI protocol based liquid medium dilution method; format: functional
Candida albicans [5] = experiment: Antifungal activity against fluconazole resistant Candida albicans strain CaR assessed as fungal growth inhibition measured after 72 hrs in presence of naftifine by CLSI protocol based liquid medium dilution method; format: functional
[6] = Drug uptake in fluconazole resistant Candida albicans strain 901 in presence of naftifine by fluorescence microscopy; format: ADME
Candida albicans [7] = experiment: Antifungal activity against fluconazole resistant Candida albicans strain 901 assessed as decrease in fungal cell density in presence naftifine of by fluorescence microscopy; format: functional, organism-based

For Clc1ccc(COC(Cn2ccnc2)c2ccc(Cl)cc2Cl)c(Cl)c1 (configuration not stated) [MICONAZOLE], the MIC50 (Candida albicans [1]) was 2 µg/mL, the MIC50 (Candida albicans [2]) was 1 µg/mL and the MIC50 (Candida albicans [3]) was 2 µg/mL. The MIC50 (Candida albicans [4]) was 1 µg/mL, the MIC50 (Candida albicans [5]) was 1 µg/mL and the Drug uptake [6] was “Active”. The Activity (Candida albicans [7]) was “Active”.
